Source: patent US11332500B2, “Heterotandem bicyclic peptide complexes” (BicycleTx Limited, priority 2019, dated 2022)
Read-outs that look alike come from different tables or passages of the source. *1 amine or outer side, *2 acyl side, *3 side chain or, on linkers, in order; H or OH if unused. Where a SMILES comes first, the peptide text is derived from it. Bridges are numbered along the chain shown (N, C = ends). Roman numbers before positions name the chains, in order. [ ]: non-standard residue; d: D form. TATA = O=C(CC[*:1])N1CN(C(=O)CC[*:2])CN(C(=O)CC[*:3])C1; X1 = O=C(CCc1cn(CCOCCOCCOCCOCCOCCC(=O)[*:2])nn1)[*:1]; X2 = O=C(CCOCCOCCOCCOCCOCCn1cc(CCC(=O)[*:2])nn1)[*:1]; Dip = N[C@H](C(=O)O)C(c1ccccc1)c1ccccc1; Hyp = O=C(O)[C@@H]1C[C@@H](O)CN1; hArg = N=C(N)NCCCC[C@H](N)C(=O)O; tBuAla = CC(C)(C)C[C@H](N)C(=O)O; Cba = N[C@@H](CC1CCC1)C(=O)O; Nle = CCCC[C@H](N)C(=O)O

Assays:
[1] = target: T1, CD137 (Homo sapiens, UniProt Q07011); assay: CD137 reporter assay co-culture with RKO tumour cells (PD-L1/CD137 heterotandems); format: cell-based; settings: Jurkat CD137 reporter cells co-cultured with RKO (PD-L1), 6 h; read-out: Fold Induction over background
T1 construct: host or cells: Jurkat reporter cells from the Promega kit, co-cultured with tumour cells (NCI-H292, PC3 or RKO)
Experimental: Culture medium, referred to as R1 media, is prepared by adding 1% FBS to RPMI-1640 (component of Promega kit CS196005). Serial dilutions of test articles in R1 are prepared in a sterile 96 well-plate. Add 25 μL per well of test articles or R1 (as a background control) to designated wells in a white cell culture plate. Tumour cells* are harvested and resuspended at a concentration of 400,000 cells/mL in R1 media. Twenty five (25) μL/well of tumour cells are added to the white cell culture plate. Jurkat cells (Promega kit CS196005, 0.5 mL) are thawed in the water bath and then added to 5 ml pre-warmed R1 media. Twenty five (25) μL/well of Jurkat cells are then added to the white cell culture plate. Incubate the cells and test articles for 6 h at 37° C., 5% CO2. At the end of 6 h, add 75 μL/well Bio-Glo™ reagent (Promega) and incubate for 10 min before reading luminescence in a plate reader (Clariostar, BMG). The fold change relative to cells alone (Jurkat cells+Cell line used in co-culture) is calculated and plotted in GraphPad Prism as log(agonist) vs response to determine EC50 (nM) and Fold Induction over background (Max).
The tumour cell type used in co-culture for EphA2 is PC3. The tumour cell type used in co-culture for PD-L1 is RKO.
A summary of the fold induction induced by PD-L1/CD137 heterotandem peptides in the CD137 reporter coculture assay with RKO cells is shown in Table 3.

[2] = Pharmacokinetics of CD137 heterotandem bicyclic peptide complexes in SD rats; settings: rat, in vivo, male SD rats, IV Inf, plasma; for clearance: read-out: Clp; for half-life: read-out: T½ (converted); for Vd: read-out: Vdss
Experimental: Male SD Rats were dosed with 2 mg/kg of each heterotandem Bicycle peptide complex formulated in 25 mM Histidine HCl, 10% sucrose pH 7. Serial bleeding (about 80 μL blood/time point) was performed via submadibular or saphenous vein at each time point. All blood samples were immediately transferred into prechilled microcentrifuge tubes containing 2 μL K2-EDTA (0.5M) as anti-coagulant and placed on wet ice. Blood samples were immediately processed for plasma by centrifugation at approximately 4° C., 3000 g. The precipitant including internal standard was immediately added into the plasma, mixed well and centrifuged at 12,000 rpm, 4° C. for 10 minutes. The supernatant was transferred into pre-labeled polypropylene microcentrifuge tubes, and then quick-frozen over dry ice. The samples were stored at […] or below as needed until analysis. 7.5 μL of the supernatant samples were directly injected for LC-MS/MS analysis using an Orbitrap Q Exactive in positive ion mode to determine the concentrations of Bicycle. Plasma concentration versus time data were analyzed by non-compartmental approaches using the Phoenix WinNonlin 6.3 software program. C0, Cl, Vdss, T½, AUC(0-last), AUC(0-inf), MRT(0-last), MRT(0-inf) and graphs of plasma concentration versus time profile were reported.

T1 sequence (Q07011 24-255): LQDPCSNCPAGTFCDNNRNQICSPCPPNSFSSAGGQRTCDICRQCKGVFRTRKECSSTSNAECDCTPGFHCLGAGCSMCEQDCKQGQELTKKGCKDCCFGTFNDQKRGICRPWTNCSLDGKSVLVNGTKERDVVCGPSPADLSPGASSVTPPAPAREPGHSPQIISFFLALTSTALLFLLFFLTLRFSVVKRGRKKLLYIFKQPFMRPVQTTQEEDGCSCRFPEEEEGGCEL

| SMILES | fold induction [1] | clearance ([2]; 3.0 mg/kg) | half-life ([2]; 3.0 mg/kg) | Vd ([2]; 3.0 mg/kg) | also measured |
| --- | --- | --- | --- | --- | --- |
| CCCC[C@@H]1NC(=O)[C@H](Cc2ccc(O)cc2)NC(=O)[C@@H]2CCCN2C(=O)[C@H](CC(=O)O)NC(=O)[C@H](C)NC(=O)[C@H](Cc2ccccc2)NC(=O)[C@@H]2CSCCC(=O)N3CN(CN(C3)C(=O)CCSC[C@@H](C(=O)N[C@@H](C)C(N)=O)NC1=O)C(=O)CCSC[C@H](NC(C)=O)C(=O)N[C@@H](CC(C)(C)C)C(=O)N1CCC[C@H]1C(=O)N[C@@H](CCC(=O)O)C(=O)N[C@H](CCCCNC(=O)CCc1cn(CCOCCOCCOCCOCCOCCC(=O)NCCCC[C@@H]3NC(=O)[C@H](CO)NC(=O)[C@@H](NC(=O)[C@H](CCCCNC(=N)N)NC(=O)[C@H](CC(=O)O)NC(C)=O)CSCCC(=O)N4CN5CN(C4)C(=O)CCSC[C@@H](C(=O)N4CCC[C@H]4C(=O)N[C@@H](CO)C(=O)N[C@@H](Cc4c[nH]cn4)C(N)=O)NC(=O)[C@H](CC(C)C)NC(=O)[C@H](Cc4c[nH]cn4)NC(=O)[C@H](CC(C)C)NC(=O)[C@H](CCCCNC(C)=O)NC(=O)[C@H](CCC(N)=O)NC(=O)[C@H](CSCCC5=O)NC(=O)[C@H](CCSC)NC(=O)[C@H]([C@@H](C)O)NC(=O)[C@H](CC(C)C)NC(=O)[C@H](Cc4c[nH]c5ccccc45)NC(=O)CNC3=O)nn1)C(=O)N1CCC[C@H]1C(=O)N[C@@H](Cc1ccc(O)cc1)C(=O)N2 [BCY12230] (I: Ac-D[hArg]CSKGWLTMCQK(Ac)LHLCPSH-NH2 / II: Ac-C[tBuAla]PE[dK]PYCFADPY[Nle]CA-NH2; linker I:3-I:11-I:17, II:1-II:8-II:15 via TATA; linker I:5-II:5 via X2) | 10 |  |  |  |  |
| CCCC[C@@H]1NC(=O)[C@H](Cc2ccc(O)cc2)NC(=O)[C@@H]2CCCN2C(=O)[C@H](CC(=O)O)NC(=O)[C@H](C)NC(=O)[C@H](Cc2ccccc2)NC(=O)[C@@H]2CSCCC(=O)N3CN(CN(C3)C(=O)CCSC[C@@H](C(=O)N[C@@H](C)C(N)=O)NC1=O)C(=O)CCSC[C@H](NC(C)=O)C(=O)N[C@@H](CC(C)(C)C)C(=O)N1CCC[C@H]1C(=O)N[C@@H](CCC(=O)O)C(=O)N[C@H](CCCCNC(=O)CCOCCOCCOCCOCCOCCn1cc(CCC(=O)NCCCC[C@H](NC(=O)[C@@H]3CSCCC(=O)N4CN5CN(C4)C(=O)CCSC[C@H](NC(=O)[C@H](CC(=O)O)NC(=O)[C@H](CCCCNC(=N)N)NC(=O)[C@H](C)NC(C)=O)C(=O)N4C[C@H](O)C[C@H]4C(=O)N[C@@H](CC(C)C)C(=O)N[C@@H](C(C)C)C(=O)N[C@@H](CC(N)=O)C(=O)N4CCC[C@H]4C(=O)N[C@@H](CC(C)C)C(=O)N[C@@H](CSCCC5=O)C(=O)N[C@@H](CC(C)C)C(=O)N[C@@H](Cc4c[nH]cn4)C(=O)N4CCC[C@H]4C(=O)N[C@H](CC(=O)O)C(=O)N[C@@H](Cc4c[nH]c5ccccc45)C(=O)N[C@@H](CCCCNC(=N)N)C(=O)N3)C(N)=O)nn1)C(=O)N1CCC[C@H]1C(=O)N[C@@H](Cc1ccc(O)cc1)C(=O)N2 [BCY12234] (I: Ac-A[hArg]DC[Hyp]LVNPLCLHP[dD]W[hArg]CK-NH2 / II: Ac-C[tBuAla]PE[dK]PYCFADPY[Nle]CA-NH2; linker I:4-I:11-I:18, II:1-II:8-II:15 via TATA; linker I:19-II:5 via X1) |  |  |  |  | clearance ([2]; 2.0 mg/kg): 26 mL/min/kg; half-life ([2]; 2.0 mg/kg): 0.42 h; Vd ([2]; 2.0 mg/kg): 0.95 L/kg |
| CCCC[C@@H]1NC(=O)[C@H](Cc2ccc(O)cc2)NC(=O)[C@@H]2CCCN2C(=O)[C@H](CC(=O)O)NC(=O)[C@H](C)NC(=O)[C@H](Cc2ccccc2)NC(=O)[C@@H]2CSCCC(=O)N3CN(CN(C3)C(=O)CCSC[C@@H](C(=O)N[C@@H](C)C(N)=O)NC1=O)C(=O)CCSC[C@H](NC(C)=O)C(=O)N[C@@H](CC(C)(C)C)C(=O)N1CCC[C@H]1C(=O)N[C@@H](CCC(=O)O)C(=O)N[C@H](CCCCNC(=O)CCc1cn(CCOCCOCCOCCOCCOCCC(=O)NCCCC[C@@H]3NC(=O)[C@H](CC(C)C)NC(=O)[C@H](CCCCNC(C)=O)NC(=O)[C@H](CCC(N)=O)NC(=O)[C@@H]4CSCCC(=O)N5CN(CN(C5)C(=O)CCSC[C@@H](C(=O)N5CCC[C@H]5C(=O)N[C@@H](CO)C(=O)N[C@@H](Cc5c[nH]cn5)C(N)=O)NC(=O)[C@H](CC(C)C)NC3=O)C(=O)CCSC[C@H](NC(=O)[C@H](CCCCNC(=N)N)NC(=O)[C@H](CC(=O)O)NC(C)=O)C(=O)N[C@@H](CO)C(=O)N[C@@H](C)C(=O)NCC(=O)N[C@@H](Cc3c[nH]c5ccccc35)C(=O)N[C@@H](CC(C)C)C(=O)N[C@@H]([C@@H](C)O)C(=O)N[C@@H](CCSC)C(=O)N4)nn1)C(=O)N1CCC[C@H]1C(=O)N[C@@H](Cc1ccc(O)cc1)C(=O)N2 [BCY12242] (I: Ac-D[hArg]CSAGWLTMCQK(Ac)LKLCPSH-NH2 / II: Ac-C[tBuAla]PE[dK]PYCFADPY[Nle]CA-NH2; linker I:3-I:11-I:17, II:1-II:8-II:15 via TATA; linker I:15-II:5 via X2) | 13 |  |  |  |  |
| CCCC[C@@H]1NC(=O)[C@H](Cc2ccc(O)cc2)NC(=O)[C@@H]2CCCN2C(=O)[C@H](CC(=O)O)NC(=O)[C@H](C)NC(=O)[C@H](Cc2ccccc2)NC(=O)[C@@H]2CSCCC(=O)N3CN(CN(C3)C(=O)CCSC[C@@H](C(=O)N[C@@H](C)C(N)=O)NC1=O)C(=O)CCSC[C@H](NC(C)=O)C(=O)N[C@@H](CC(C)(C)C)C(=O)N1CCC[C@H]1C(=O)N[C@@H](CCC(=O)O)C(=O)N[C@H](CCCCNC(=O)CCc1cn(CCOCCOCCOCCOCCOCCC(=O)N[C@H]3CSCCC(=O)N4CN5CN(C4)C(=O)CCSC[C@H](NC(=O)[C@H](CC(C)C)NC(=O)[C@@H]4CCCN4C(=O)[C@H](CC(N)=O)NC(=O)[C@H](C(C)C)NC(=O)[C@H](CC(C)C)NC(=O)[C@@H]4C[C@@H](O)CN4C3=O)C(=O)N[C@@H](CC(C)C)C(=O)N[C@@H](C(c3ccccc3)c3ccccc3)C(=O)N3CCC[C@H]3C(=O)N[C@H](CC(=O)O)C(=O)N[C@@H](Cc3c[nH]c4ccccc34)C(=O)N[C@@H]([C@@H](C)O)C(=O)N[C@H](C(N)=O)CSCCC5=O)nn1)C(=O)N1CCC[C@H]1C(=O)N[C@@H](Cc1ccc(O)cc1)C(=O)N2 [BCY13035] (I: Ac-C[tBuAla]PE[dK]PYCFADPY[Nle]CA-NH2 / II: C[Hyp]LVNPLCL[Dip]P[dD]WTC-NH2; linker I:1-I:8-I:15, II:1-II:8-II:15 via TATA; linker I:5-II:N via X1) |  | 11 mL/min/kg | 1.5 h | 0.63 L/kg |  |
| CCCC[C@@H]1NC(=O)[C@H](Cc2ccc(O)cc2)NC(=O)[C@@H]2CCCN2C(=O)[C@H](CC(=O)O)NC(=O)[C@H](C)NC(=O)[C@H](Cc2ccccc2)NC(=O)[C@@H]2CSCCC(=O)N3CN(CN(C3)C(=O)CCSC[C@@H](C(=O)N[C@@H](C)C(N)=O)NC1=O)C(=O)CCSC[C@H](NC(C)=O)C(=O)N[C@@H](CC(C)(C)C)C(=O)N1CCC[C@H]1C(=O)N[C@@H](CCC(=O)O)C(=O)N[C@H](CCCCNC(=O)CCc1cn(CCOCCOCCOCCOCCOCCC(=O)N[C@H]3CSCCC(=O)N4CN5CN(C4)C(=O)CCSC[C@@H](C(=O)N[C@H](C)C(N)=O)NC(=O)[C@H]([C@@H](C)O)NC(=O)[C@H](Cc4c[nH]c6ccccc46)NC(=O)[C@@H](CC(=O)O)NC(=O)[C@@H]4CCCN4C(=O)[C@H](C(c4ccccc4)c4ccccc4)NC(=O)[C@H](CC(C)C)NC(=O)[C@H](CSCCC5=O)NC(=O)[C@H](CC(C)C)NC(=O)[C@@H]4CCCN4C(=O)[C@H](CC(N)=O)NC(=O)[C@H](C(C)C)NC(=O)[C@H](CC4CCC4)NC(=O)[C@@H]4C[C@@H](O)CN4C3=O)nn1)C(=O)N1CCC[C@H]1C(=O)N[C@@H](Cc1ccc(O)cc1)C(=O)N2 [BCY13040] (I: C[Hyp][Cba]VNPLCL[Dip]P[dD]WTC[dA]-NH2 / II: Ac-C[tBuAla]PE[dK]PYCFADPY[Nle]CA-NH2; linker I:1-I:8-I:15, II:1-II:8-II:15 via TATA; linker I:N-II:5 via X2) |  | 10 mL/min/kg | 1.6 h | 0.63 L/kg |  |
